Assay results as given in US7018981B2, “Cyclic motilin receptor antagonists” (Chugai Seiyaku Kabushiki Kaisha, priority 2000, dated 2006).
Read-outs that look alike come from different tables or passages of the source. Where a SMILES comes first, the peptide text is derived from it. Bridges are numbered along the chain shown (N, C = ends). [ ]: non-standard residue; d: D form. Tyr(3-tBu) = CC(C)(C)c1cc(C[CH](N)C(=O)O)ccc1O; βAla = NCCC(=O)O

Assays:
[1] = amide bond, BOP, 25.0 °C
[2] = amide bond, 25.0 °C
[3] = system: motilin-induced contraction of a sample of the longitudinal muscle of the duodenum; assay: Contraction inhibition test: motilin-induced contraction of rabbit longitudinal duodenal muscle; assay type: cell-based; conditions: Oryctolagus cuniculus; concentration-dependent contraction induced by motilin; rabbit duodenal specimen in Krebs solution at 28° C.; read-out: Contraction inhibition test pA2 (converted)
Description: The effect of compounds of the present invention on motilin-induced contraction of a sample of the longitudinal muscle of the duodenum extracted from a rabbit was tested as follows.
A duodenal specimen (5×15 mm) extracted from a killed rabbit was suspended in the direction of the longitudinal muscle in an incubator at 28° C. filled with Krebs solution (10 ml organ bath). A mixed gas (95% O2, 5% CO2) was continuously passed through the Krebs solution and the contraction of the duodenal specimen was isotonically recorded (under a load of 1 g) via an isotonic transducer (ME-3407, ME Commercial, Tokyo, Japan). The extent of contraction of the duodenal specimen was expressed as a percentage to the contraction induced by acetylcholine at a concentration of 10^−4 M.
The effect of the compounds synthesized in Examples 1–8 and 10 on the concentration-dependent contraction induced by motilin added into the incubator was determined to calculate pA2 (see “Drug receptors” edited by Takayanagi, published by Nanzando). As a comparative example, the results of the compound of formula (5) are also shown.

motilin receptors = molecular target: T1, motilin receptors (Oryctolagus cuniculus, UniProt G1T803); assay: Motilin receptor binding test (125I motilin, rabbit duodenum protein solution); conditions: concentration inhibiting 50% of specific binding of 25 pM 125I motilin; rabbit duodenum homogenate, 2 hours at 25° C.
T1 construct: A protein solution was prepared by homogenizing the duodenum isolated from a killed rabbit; from tissue; host or cells: rabbit duodenum, mucosa stripped, homogenate
Description: Motilin receptor binding activities of compounds of the present invention were tested as follows [Vantrappen et al., Regul.
A protein solution was prepared by homogenizing the duodenum isolated from a killed rabbit in 50 mM Tris after stripping the mucosa. […] The difference between the radioactivity of the protein solution incubated alone and the radioactivity of the protein solution incubated with a large excess of motilin (10^−7 M) was recorded as specific binding of motilin to motilin receptors.

[4] = 14-membered ring, BOP, DMF/pyridine 1:1, 9.9 mM, 2 steps

T1 sequence (G1T803 1-400): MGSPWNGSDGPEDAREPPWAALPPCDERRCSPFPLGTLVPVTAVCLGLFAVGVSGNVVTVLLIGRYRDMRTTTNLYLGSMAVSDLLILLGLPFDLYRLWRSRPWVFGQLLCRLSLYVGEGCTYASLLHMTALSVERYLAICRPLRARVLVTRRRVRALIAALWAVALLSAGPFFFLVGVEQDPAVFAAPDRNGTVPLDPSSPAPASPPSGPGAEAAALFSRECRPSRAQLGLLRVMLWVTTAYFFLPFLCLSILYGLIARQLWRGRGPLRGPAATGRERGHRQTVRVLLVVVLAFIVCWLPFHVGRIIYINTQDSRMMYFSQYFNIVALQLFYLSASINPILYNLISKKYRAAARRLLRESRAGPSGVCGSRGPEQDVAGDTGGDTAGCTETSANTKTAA

CN1CCC(=O)NCCCC[C@H](N(C)C(=O)[C@H](Cc2ccc(F)cc2)NC(=O)OC(C)(C)C)C(=O)N[C@@H](Cc2ccc(O)c(C(C)(C)C)c2)C1=O
ring closure, yield of all isomers ([1]; from CN(CCC(=O)O)C(=O)[C@H](Cc1ccc(O)c(C(C)(C)C)c1)NC(=O)[C@H](CCCCN)N(C)C(=O)[C@H](Cc1ccc(F)cc1)NC(=O)OC(C)(C)C, DMF, 10.3 mM, 16.0 h): 60%

(2S-(2S,13S))-2-tert-butoxycarbonylamino-N-(2-(3-tert-butyl-4-hydroxyphenylmethyl)-1,4,8-triaza-3,7,14-trioxocyclotetradec-13-yl)-3-(4-fluorophenyl)-N-methylpropionamide
ring closure, isolated yield ([2]; 14-membered ring, BOP/pyridine, DMF/pyridine 1:1, 10.1 mM): 69%

CC(C)(C)c1cc(CC2NC(=O)C(NC(=O)C(N)Cc3ccccc3)CCCCNC(=O)CCNC2=O)ccc1O (stereo not drawn) [Comparative example, reference compound] (H-FK[Tyr(3-tBu)][βAla]; lactam 2-C; configuration not given here)
Kb [3]: 0.0631 µM
IC50 (motilin receptors): 0.01 µM

CN(C(=O)[C@H](Cc1ccccc1)NC(=O)OCc1ccccc1)[C@H]1CCCCNC(=O)CCNC(=O)[C@H](Cc2ccc(O)c(C(C)(C)C)c2)NC1=O
ring closure, yield of all isomers ([1]; from CN(C(=O)[C@H](Cc1ccccc1)NC(=O)OCc1ccccc1)[C@@H](CCCCN)C(=O)N[C@@H](Cc1ccc(O)c(C(C)(C)C)c1)C(=O)NCCC(=O)O, DMF, 9.91 mM, 2 steps): 48%

2S-(2S,13S))-N-(8-acetyl-2-(3-tert-butyl-4-hydroxyphenylmethyl)-3,14-dioxo-1,4,8-triazacyclotetradec-13-yl)-2-tert-butoxycarbonylamino-3-(4-fluorophenyl)-N-methylpropionamide
ring closure, isolated yield ([2]; 14-membered ring, BOP/pyridine, DMF/pyridine 1:1, 9.9 mM): 55%

CN(C(=O)[C@H](Cc1ccc(F)cc1)NC(=O)OC(C)(C)C)[C@H]1CCCCNC(=O)CCCNC(=O)[C@H](Cc2ccc(O)c(C(C)(C)C)c2)NC1=O
ring closure, yield of all isomers ([1]; from CN(C(=O)[C@H](Cc1ccc(F)cc1)NC(=O)OC(C)(C)C)[C@@H](CCCCN)C(=O)N[C@@H](Cc1ccc(O)c(C(C)(C)C)c1)C(=O)NCCCC(=O)O, DMF, 10.1 mM, 16.0 h): 82%

CC(=O)N1CCCC[C@H](N(C)C(=O)[C@H](Cc2ccc(F)cc2)NC(=O)OC(C)(C)C)C(=O)N[C@@H](Cc2ccc(O)c(C(C)(C)C)c2)C(=O)NCCC1
ring closure, yield of all isomers ([1]; from CC(=O)N(CCCN)CCCC[C@@H](C(=O)N[C@@H](Cc1ccc(O)c(C(C)(C)C)c1)C(=O)O)N(C)C(=O)[C@H](Cc1ccc(F)cc1)NC(=O)OC(C)(C)C, DMF, 9.87 mM, 18.0 h): 55%

CN(C(=O)[C@H](Cc1ccc(F)cc1)NC(=O)OC(C)(C)C)[C@H]1CCCCNC(=O)CCNC(=O)[C@H](Cc2ccc(O)c(C(C)(C)C)c2)N(C)C1=O
ring closure, yield of all isomers ([1]; from CN(C(=O)[C@H](Cc1ccc(F)cc1)NC(=O)OC(C)(C)C)[C@@H](CCCCN)C(=O)N(C)[C@@H](Cc1ccc(O)c(C(C)(C)C)c1)C(=O)NCCC(=O)O, DMF, 10.0 mM, 26.0 h, 2 steps): 36%

CN1CCC[C@H](N(C)C(=O)[C@@H](N)Cc2ccc(F)cc2)C(=O)N[C@@H](Cc2ccc(O)c(C(C)(C)C)c2)C(=O)NCCCC1=O [Example 9, (2S-(2S,13S))-2-amino-N-(2-(3-tert-butyl-4-hydroxyphenylmethyl)-9,N-dimethyl-1,4,9-triaza-3,8,14-trioxocyclotetradec-13-yl)-3-(4-fluorophenyl)propionamide]
IC50 (motilin receptors): 0.0053 µM

(2S-(2S,12S))-2-tert-butoxycarbonylamino-N-(2-(3-tert-butyl-4-hydroxyphenylmethyl)-1,4,8-triaza-3,7,13-trioxocyclotridec-12-yl)-3-(4-fluorophenyl)-N-methylpropionamide
ring closure, isolated yield ([2]; 13-membered ring, BOP/pyridine, DMF/pyridine 1:1, 10.75 mM, 2 steps): 60%

CN1CCC[C@H](N(C)C(=O)[C@H](Cc2ccc(F)cc2)NC(=O)OC(C)(C)C)C(=O)N[C@@H](Cc2ccc(O)c(C(C)(C)C)c2)C(=O)NCCCC1=O
ring closure, yield of all isomers ([1]; from CNCCC[C@@H](C(=O)N[C@@H](Cc1ccc(O)c(C(C)(C)C)c1)C(=O)NCCCC(=O)O)N(C)C(=O)[C@H](Cc1ccc(F)cc1)NC(=O)OC(C)(C)C, DMF, 9.93 mM, 12.0 h, 2 steps): 60%

CN(C(=O)[C@H](Cc1ccc(F)cc1)NC(=O)OC(C)(C)C)[C@H]1CCCCNC(=O)CCNC(=O)[C@H](Cc2ccc(O)c(C(C)(C)C)c2)NC1=O
ring closure, yield of all isomers ([1]; from CN(C(=O)[C@H](Cc1ccc(F)cc1)NC(=O)OC(C)(C)C)[C@@H](CCCCN)C(=O)N[C@@H](Cc1ccc(O)c(C(C)(C)C)c1)C(=O)NCCC(=O)O, DMF, 10.1 mM, 18.0 h): 69%

(2S-(2S,13S))-2-(tert-butoxycarbonylamino)-N-(2-(3-tert-butyl-4-hydroxyphenylmethyl)-8-methyl-1,4, 8-triaza-3,7,14-trioxocyclotetradec-13-yl)-3-(4-fluorophenyl)-N-methylpropionamide
ring closure, isolated yield ([2]; 14-membered ring, BOP/pyridine, DMF/pyridine 1:1, 10.5 mM): 36%

(2S-(2S,13S))-2-tert-butoxycarbonylamino-N-(2-(3-tert-butyl-4-hydroxyphenylmethyl)-9-methyl-1,4,9-triaza-3,8,14-trioxocyclotetradec-13-yl)-3-(4-fluorophenyl)-N-methylpropionamide
ring closure, isolated yield [2, 4]: 60%

(2S-(2S,13S))-N-(8-acetyl-2-(3-tert-butyl-4-hydroxyphenylmethyl)-3,14-dioxo-1,4,8-triazacyclotetradec-13-yl)-2-tert-butoxycarbonylamino-3-(4-fluorophenyl)-N-methylpropionamide
ring closure, isolated yield ([2]; 14-membered ring, BOP, DMF/pyridine 1:1, 9.9 mM): 55%

CN1CCCC[C@H](N(C)C(=O)[C@H](Cc2ccc(F)cc2)NC(=O)OC(C)(C)C)C(=O)N[C@@H](Cc2ccc(O)c(C(C)(C)C)c2)C(=O)NCCC1=O
ring closure, yield of all isomers ([1]; from CNCCCC[C@@H](C(=O)N[C@@H](Cc1ccc(O)c(C(C)(C)C)c1)C(=O)NCCC(=O)O)N(C)C(=O)[C@H](Cc1ccc(F)cc1)NC(=O)OC(C)(C)C, DMF, 10.5 mM, 16.0 h): 36%

CC(C)(C)c1cc(C[C@@H]2NC(=O)C(N)CCCCNC(=O)CCNC2=O)ccc1O (stereo partly drawn)
ring closure, isolated yield ([2]; from Z-Lys-Tyr(3-tBu)-bAla-OH?, 14-membered ring, BOP/pyridine, MeCN/pyridine 1:1, 10.2 mM, 3 steps): 90%

CN(C(=O)[C@H](Cc1ccc(F)cc1)NC(=O)OC(C)(C)C)[C@H]1CCCCNC(=O)CNC(=O)[C@H](Cc2ccc(O)c(C(C)(C)C)c2)NC1=O
ring closure, yield of all isomers ([1]; from CN(C(=O)[C@H](Cc1ccc(F)cc1)NC(=O)OC(C)(C)C)[C@@H](CCCCN)C(=O)N[C@@H](Cc1ccc(O)c(C(C)(C)C)c1)C(=O)NCC(=O)O, DMF, 10.75 mM, 23.0 h, 2 steps): 60%

(2S-(2S,14S))-2-(tert-butoxycarbonylamino)-N-(2-(3-tert-butyl-4-hydroxyphenylmethyl)-1,4,9-triaza-3,8,15-trioxocyclopentadec-14-yl)-3-(4-fluorophenyl)-N-methylpropionamide
ring closure, isolated yield ([2]; 15-membered ring, BOP/pyridine, DMF/pyridine 1:1, 10.1 mM): 82%

CC(C)(C)c1cc(C[C@@H]2NC(=O)[C@@H](N)CCCCNC(=O)CCNC2=O)ccc1O
ring closure, yield of all isomers ([1]; from CC(C)(C)OC(=O)CCNC(=O)[C@H](Cc1ccc(O)c(C(C)(C)C)c1)NC(=O)[C@H](CCCCNC(=O)OC(C)(C)C)NC(=O)OCc1ccccc1, acetonitrile, 10.2 mM, 21.0 h, 3 steps): 90%

(2S-(2S,13S))-2-tert-butoxycarbonylamino-N-(2-(3-tert-butyl-4-hydroxyphenylmethyl)-4-methyl-1,4,8-triaza-3,7,14-trioxocyclotetradec-13-yl)-3-(4-fluorophenyl)-N-methylpropionamide
ring closure, isolated yield ([2]; 14-membered ring, BOP/pyridine, DMF/pyridine 1:1, 10.3 mM): 60%

(2S-(2S,13S))-2-benzyloxycarbonylamino-N-(2-(3-tert-butyl-4-hydroxyphenylmethyl)-1,4,8-triaza-3,7,14-trioxocyclotetradec-13-yl)-3-phenyl-N-methylpropionamide
ring closure, isolated yield [2, 4]: 48%

(2S-(2S,13S))-2-tert-butoxycarbonylamino-N-(2-(3-tert-butyl-4-hydroxyphenylmethyl)-1-methyl-1,4,8-triaza-3,7,14-trioxocyclotetradec-13-yl)-3-(4-fluorophenyl)-N-methylpropionamide
ring closure, isolated yield ([2]; 14-membered ring, BOP/pyridine, DMF/pyridine 1:1, 10.0 mM, 2 steps): 36%
